Source: patent US20240173380A1, “CONNEXIN 43 FOR USE IN THE TREATMENT OF A CANCER TYPE CHARACTERIZED BY THE ACTIVATION OF A MITOGEN-ACTIVATED PROTEIN KINASE” (FUNDACIÓN PROFESOR NOVOA SANTOS, priority 2020, published 2024)
Where a name gives a salt, the structure may show the parent alone.

What was measured:
Format in all cases: cell-based, human
A375 cell line = assay: Gap junction intercellular communication: scrape loading and dye transfer; details: A375 transfected with Cx43 vector vs empty vector (EV)
Experimental: Cells were seeded on 6 or 12 wells and cultured until 80-100% of confluence and rinsed twice with warm PBS. Lucifer Yellow CH dilithium salt (1 mg/mL) (LY: Cell Projects Ltd© Kent) in PBS was added to the cells and parallel cuts (3 cuts per well) were performed with a surgical blade (Swann-Mortonscalpel®). After 3-5 min at 37° C. cells were washed with PBS and fixed 2% PFA in PBS. LY becomes incorporated by cells along the cut and move from the dye-loaded cells into adjacent ones connected by functional gap junction channels. The areas for LY loading were randomly selected in the central part of wells to obtain the images for quantification. Images were captured with 10× objective using a Nikon Eclipse Ti fluorescent microscope. The constant exposures were used for all images for a given experiment. Ten images per sample were quantified. The score was calculated as the ratio of the number of non-damage LY positive cells at the edge and the number of the LY positive cells outside the edge.
Cells were seeded on 12-wells plated and cultured until 80-100% of confluence. […] The fluorescence emitted was measured at 640/40 nm and 540/40 nm with two photodetectors, the time course of the passage of dye from the injected cell to the adjacent cells was studied.

[1] = tested on: A375 melanoma cells (BRAF mutation); assay: Cell proliferation and colony formation (xCELLigence, CCK-8, clonogenic assay)
Experimental: Dojindo's highly water-soluble tetrazolium salt (WST-8) is reduced by dehydrogenase activity in cells to give a yellow-color formazan dye, which is soluble in the tissue culture media. The amount of the formazan dye generated by dehydrogenases is directly proportional to the number of living cells. Equal number of cells (1000-2000 cells) were seeded per triplicate in 96-well plates and cultured in the different conditions. Medium was replaced by 100 μL of fresh medium and 10 μL of CCK-8 reagent was added per well. After an incubation for 1 to 4 h at 37° C., absorbance was measured at 450 nm in a NanoQuant microplate reader Infinite M200 (TECAN). Results were calculated as optical density (OD) 450 nm=OD of sample−OD of blank.
The E8 xCELLigence plates were prepared by addition of 100 μL of complete media to every well. After incubation at 37° C., plates were inserted into the xCELLigence station, and the base-line impedance was measured to ensure that all wells and connections were working. Following harvesting and counting, cells were diluted to the selected seeding density and 100 μl of cells in culture medium was added to each well. For the cell proliferation assays for each condition, 1×10^3-5×10^3 cells/well was seeded into 100 μL of media in the E-Plate L8 (Acea Biosciences). The attachment and proliferation of the cells were monitored every 30 min. Cell proliferation was monitored for 48-72 h. Cell Index at each time point is defined as (Rn−Rb)/15, where Rn is the cell-electrode impedance of the well when it contains cells and Rb is the background impedance of the well with the media alone. For the cell adhesion assays, for each condition, 1×10^3-5×10^3 cells/well was seeded into 100 μL of media in E-Plate L8 (Acea Biosciences). Cell proliferation was monitored for 1 h every 10 sec. The extend of cell adhesion and spreading was monitored every min for 1-3 h. Cell Index at each time point is defined as (Rn−Rb)/15, where Rn is the cell-electrode impedance of the well when it contains cells and Rb is the background impedance of the well with the media alone.
(§1) Colony formation assays were performed by seeding 5×10^3 to 5×10^4 cells per well onto 6-12 well plates and grown for 7-15 days. The culture medium was replaced every 48 h. The cells were washed with warm Saline Solution and fixed with cold 2% PFA for 15 min. Cells were washed with 1×PBS and stained with 0.1% of crystal violet (Sigma-Aldrich) for 15 min. After staining, the cells were washed with distilled water and dried at room temperature. The colonies were quantified by diluting crystal violet in 5% acetic acid and 100 μL of the solution was collected to measure the absorbance at 570 nm using a NanoQuant microplate reader Infinite M200 (TECAN).

[2] = tested on: cleaved caspase 3 in A375 cells; assay: Cleaved caspase 3 western blot
Source text: (§2) The insoluble fraction was resuspended in lysis buffer (membrane).

A375 tumour cell line = assay: Cellular senescence: SA-β-Gal staining and flow cytometry
Experimental: The detection of SA-β-Gal activity was measured using the Senescence Cells Histochemical Staining Kit (Sigma-Aldrich). Cells were rinsed with warm PBS and fixed for 7 min at RT with a fixation buffer composed by 2% paraformaldehyde and 0.2% glutaraldehyde. After three washed with PBS, cells were incubated for 6 h or O/N at 37° C. without CO2 in a staining solution containing X-gal. This lactose analogue can be cleaved by β-galactosidase producing a blue insoluble product. Finally, cells were washed with PBS and images were taken using a light microscope.
SA-β-Gal activity was analyzed with the fluorogenic β-Galactosidase substrate di-β-D-galactopyranoside (FDG, Thermo Fisher Scientific), which is hydrolyzed by the endogenous β-galactosidase to fluorescein (FITC). Cells were harvested and incubated in a staining medium (PBS, 4% FBS, 10 mM HEPES, pH 7.2) at 37° C. for 10 min. The β-Galactosidase assay was started by adding warm 2 mM FDG to the cell suspension and after incubating for 3 min at 37° C. in the dark. The reaction was stopped with the addiction of ice-cold staining medium to the cells, which were kept on ice protected from light. […] was used for fluorescein and acquiring 20,000 event per triplicate. Data was analyzed using the FCS Express 6 Flow software.

[3] = tested on: p53 and p16 in A375 cells; assay: Western blot of senescence biomarkers p53 and p16; details: Cx43 cells vs cells transfected with empty vector
Source text: as §2

[4] = tested on: Sk-Mel-147 melanoma cells (NRAS mutation); assay: Colony formation assay; details: Sk-Mel-147 transfected with Cx43 vector
Experimental: as §1

[5] = tested on: HT29 colorectal cancer cells (BRAF mutation); assay: Colony formation assay; details: HT29 transfected with Cx43 vector vs EV
Experimental: as §1

[6] = tested on: MDA-MB-231 breast cancer cells (BRAF mutation); assay: Colony formation assay; details: MDA-MB-231 transfected with Cx43 vector vs EV
Experimental: as §1

A375 melanoma cells = assay: Apoptosis assay, PI/YO-PRO-1 double staining, flow cytometry
Experimental: (§3) Supernatants (died cells) were aspirated and attached cells were harvested. Supernatants and cells were mixed, counted and 1 million cells were resuspended in 1 mL in flow cytometry (FC) buffer. Membrane viability analysis was performed by double staining PI/YO-PRO-1. YO-PRO-1 (Invitrogen) was added to the cells (150 nM) and incubated 10 min in the dark at 4° C. PI (Invitrogen) was added (2 μg/mL) and incubated for 5 min in the dark at 4° C. After the incubation time (PI/YO-PRO) samples were analyzed in a FACs Scalibur acquiring 20,000 event per triplicate. The red fluorescence emitted by PI was detected at 610 nm and the green florescence emitted by YO-PRO was detected at 515 nm. Data was analyzed using the FCS Express 6 Flow software.

[7] = tested on: A375 cells resistant to BRAF/MEKi (DR); assay: Apoptosis assay (PI/YO-PRO-1) in double resistant cells; details: DR A375 cells transfected with Cx43 vector
Experimental: The BRAF mutated tumour cell lines A375 (melanoma), SK-Mel-28 (melanoma), MDA-MB-231 (human breast cancer) and HT-29 (human colorectal adenocarcinoma) were also used to test the role of Cx43 in drug resistance. SK-Mel147 (melanoma), NRAS mutated cell line was selected to compare the results with BRAF mutant cell lines. Cells were cultured in Dulbecco's modified Eagle's medium (DMEM) (Lonza) supplemented with 10% fetal bovine serum (FBS) (Gibco, Thermo Fisher Scientific) and 100 U/mL penicillin and 100 μg/ml streptomycin (Gibco, Thermo Fisher Scientific). […] After adding DMEM supplemented with 10% FBS, cells were transferred to falcon tube and counted using the Neubauer chamber method in a light microscope. […]
as §3, with “Membrane viability analysis was performed by double staining PI/YO-PRO-1. YO-PRO-1 (Invitrogen) was added to the cells (150 nM) and incubated 10 min in the dark at 4° C. PI (Invitrogen) was added (2 μg/mL) and incubated for 5 min in the dark at 4° C.” left out

Cx43: channel protein Connexin 43, restored in tumour cells with a pIRESpuro2 plasmid containing the human Cx43 sequence
dye coupling (GJIC) (A375 cell line): increased levels of dye coupling compared with control EV
cell proliferation and colony formation capacity ([1]; A375-Cx43 after 1-2 weeks and 4 months under 1 nM T/100 nM D): significantly less cell proliferation and colony formation capacity
cells detected ([1]; A375-Cx43 after 2 weeks under 1 nM T/100 nM D): Almost no cells were detected
proliferation rate ([1]; A375 transfected with Cx43 vector vs empty vector, xCelligence, colony formation, CCK8): significant reduction in the proliferation rate
capacity to form colonies ([1]; A375 with Cx43 vector plus different concentrations of dabrafenib and trametinib for 7 days): significantly decreases the capacity to form colonies
levels of cleaved caspase-3 ([2]; Cx43 overexpression in combination with BRAF/MEKi (1/100 nM T/D, 5 days)): showed the highest levels of cleavage caspase-3
levels of cleaved caspase-3 ([2]; Cx43 overexpression with BRAF/MEKi (T/D 4 days) followed by 24 h 3.5 μM NAV): showed the highest levels of cleavage caspase-3
cellular senescence (flow cytometry, β-Gal staining) (A375 tumour cell line; A375-Cx43 vs A375-EV under 100 nM dabra and 1 nM trame for 5 days): enhanced cellular senescence
cellular senescence (ß-Galactosidase activity) (A375 tumour cell line; Cx43 re-expression by vector in A375, no drug): increases cellular senescence
levels of senescent biomarkers p53 and p16 [3]: higher levels of the senescent biomarkers p53 and p16 than control cells
capacity to form colonies [4]: significantly decreases the capacity to form colonies
capacity to form colonies [5]: significantly decreases the capacity to form colonies
capacity to form colonies [6]: significantly decreases the capacity to form colonies
apoptosis (A375 melanoma cells; A375-Cx43 under BRAF/MEKi treatment (100 nM dabra, 1 nM trame, 5 days)): increases cellular senescence and apoptosis
basal percentage of early apoptotic cells (A375 melanoma cells; Cx43 overexpressing A375 vs empty vector): significantly higher
MFI ratio of apoptotic cells [7]: increases the MFI ratio of apoptotic cells

CC1(C)[C@@H](OC(=O)CCC(=O)O)CC[C@]2(C)[C@H]3C(=O)C=C4[C@@H]5C[C@@](C)(C(=O)O)CC[C@]5(C)CC[C@@]4(C)[C@]3(C)CC[C@@H]12 [CBX, Carbenoloxolone disodium salt, reference compound]
colony formation capacity ([1]; 100 μM CBX for 7 days, A375 EV and Cx43-overexpressing cells): No changes were detected in colony formation capacity
